According to patent US5440036A, “1,4-benzoxazine derivatives” (SS Pharmaceutical Co., Ltd., priority 1992, dated 1995):

These compounds were tested on endothelium-ablated preparations of the rat aorta (assay: Vasorelaxing effect to endothelium-ablated preparations of the rat aorta). Details: 10 min; endothelium-ablated rat aorta rings, contraction by 30 mM K^+, 37° C., sample compound cumulatively applied at intervals of 10 minutes; read-out: IC50 (50% inhibition concentration).
Procedure: Vasorelaxing effect to endothelium-ablated preparations of the rat aorta:
The aorta of each rat (body weight: 200 to 330 g) was isolated and cut at a width of about 3 mm. Endothelium was then ablated off to form a ring preparation. That preparation was incubated at 37° C., and then suspended under a load of 2 g in 10 ml of the Krebs-Henseleit solution which had been aerated with a mixed gas (95% O2, 5% CO2). Tension was isometrically recorded via an FD transducer ("T2-30-240", trade name; manufactured by Orientec) and a dynamic strain gauge ("6M81", trade name; manufactured by NEC-San-ei) Upon an elapsed time of 60 minutes or longer subsequent to the suspension, that is, after the preparation had become stable, 10^-7 M noradrenaline (Nor) was applied several times. Under contraction by 10^-7 M Nor, 10^-7 acetylcholine was applied. Preparations which were not relaxed by the application of 10^-7 acetylcholine were used in the experiment. 30 mM K^+ were applied. From the time point that its contraction had became uniform, a sample compound was cumulatively applied at intervals of 10 minutes so that the 50% inhibition concentration (IC50) was calculated.

SMILES	IC50
CC1(C)Oc2ccc(C#N)cc2[C@@H](N2CCCC2=O)[C@@H]1O (racemic) [Cromakalim, (±)-trans-6-cyano-2,2-dimethyl-4-(2-oxopyrrolidin-1-yl)-3,4-dihydro-2H-1-benzopyran-3-ol, reference compound]	134 nM
CCC(=O)NN1CC(C)(C)Oc2ccc([N+](=O)[O-])cc21 [Compound No. 8, 2,2-Dimethyl-6-nitro-4-propanoylamino-1,4-benzoxazine]	12.6 nM
CC(=O)NN1CC(C)(C)Oc2ccc(S(=O)(=O)C(F)(F)C(F)(F)F)cc21 [compound 27]	33.6 nM
CCC(=O)NN1CC(C)(C)Oc2ccc(S(=O)(=O)C(F)(F)F)cc21 [compound 57]	15.2 nM
CCC1(CC)CN(NC(C)=O)c2cc(C(F)(F)F)ccc2O1 [compound 24]	37.9 nM
C=CC(=O)NN1CC(C)(C)Oc2ccc([N+](=O)[O-])cc21 [compound 11]	28.8 nM

Further lines, results first:

IC50	SMILES
14.3 nM	CC1(C)CN(NC(=O)c2cccnc2)c2cc(S(=O)(=O)C(F)(F)F)ccc2O1 [compound 58]
51.4 nM	CC1(C)CN(NC(=O)c2cccnc2)c2cc(C(F)(F)F)ccc2O1 [compound 20]
9.6 nM	CC(=O)NN1CC(C)(C)Oc2ccc(S(=O)(=O)C(F)(F)F)cc21 [compound 56]
